Assay [1] deals with murine STAM™ model of NASH-HCC. In words: Murine STAM model of NASH-HCC, first study (Example 1): H&E NAFLD activity scoring and Sirius red fibrosis area. The following applies: for hepatocellular ballooning score relative to Vehicle control / NAFLD activity score relative to Vehicle control / fibrosis area (Sirius red-positive area) compared with the Vehicle group: once daily oral, 6 to 9 weeks of age, Bromantane 20 mg/kg, Istradefylline 18 mg/kg; for hepatocellular ballooning score relative to Vehicle control: Irsogladine 1 mg/kg; for NAFLD activity score relative to Vehicle control / fibrosis area (Sirius red-positive area) compared with the Vehicle group: Telmisartan 10 mg/kg. It is filed as in vivo, C57BL/6 mice. As for the experimental part:
Male newborn C57BL/6 mice were used. All mice were born from pathogen-free 14 day-pregnant mice obtained from Japan SLC, Inc. (Hamamatsu, Japan) prior to the start of the study.
(§1) The murine STAM™ model of NASH-HCC was performed according to previously described methods known in the art (Takakura et al, Characterization of non-alcoholic steatohepatitis, Anticancer Res, 34(9):4849-55 (2014); Fujii et al, (2013)). NASH was induced in male mice by a single subcutaneous injection of 200 μg of streptozotocin (STZ, Sigma, Mo., USA) at 2 days after birth and continuous feeding after 4 weeks of age (day 28±2) with a high fat diet (CLEA Japan Inc, Tokyo, Japan) given ad libitum.
Following induction of NASH, the mice were randomized into 12 individual study groups of 8 mice each at 6 weeks of age (day 42±2) based on body weight, the day before the start of treatment.
One day following randomization, the mice were administered a once-daily oral treatment from 6 weeks of age plus one day (day 43±2, treatment Day 1) to 9 weeks of age (hereinafter known as the “treatment period”). The mice in 11 of the 12 study groups (hereafter known as “treatment groups”) were treated individually with a distinct pharmacologic compound formulated with a pharmaceutically acceptable vehicle. […] The pharmaceutically acceptable vehicle in all groups was 0.5% carboxymethyl cellulose (CMC). […] Individual body weight was measured daily during the treatment period. Survival, clinical signs and behavior of mice were also monitored daily.
In each case, a volume of 10 mL/kg of 0.5% CMC was administered orally with (or without) the active ingredient as noted in Table 1 from 6 to 9 weeks of age until sacrifice. One exception being Trapadil, which was administered orally with one dosing of 120 mg/kg on Day 0 and then at the daily dose of 60 mg/kg starting on treatment Day 1. All mice were then sacrificed at 9 weeks of age. Blood samples were collected from all mice and the liver from each mouse was removed for analysis.
(§2) Assessment of Steatohepatitis: Liver cross-sections were subjected to hematoxylin and eosin (H&E) staining using standard techniques for histological assessment of hepatic steatosis, lobular inflammation and hepatocellular ballooning. The level of steatohepatitis severity in each liver cross-section was indicated by NAFLD Activity Scores of: 0 (normal), 1-2 (NAFLD), 3-4 (borderline) or at least 5 (NASH) in 3 randomly selected fields of H&E-stained liver cross-sections of 4 μm thickness at ×50 magnification for evaluation of steatosis and ×200 magnification each for evaluation of inflammation and evaluation of ballooning. The NAFLD Activity Score is the unweighted sum of the following: 1) hepatic steatosis score (0-3); 2) lobular inflammation score ([…]); 3) hepatocellular ballooning score (0-2).
For quantitative analysis of fibrosis area, bright field images of Sirius red-stained sections were captured around the central vein using a digital camera (DFC295; Leica, Germany) at 200-fold magnification, and the positive areas in 5 fields/section were measured using ImageJ software (National Institute of Health, USA).
(§3) Values are arithmetic means. Comparison between the study group and positive control group was performed using a two-tailed, heteroscedastic (two-sample unequal variance) Student's T-Test. A P-value of <0.05 was considered statistically significant following a Bonferroni post-hoc statistical correction analysis for multiple groups (Bonferroni Multiple Comparison Test). In this case, the correction factor was 12, corresponding to the number of study groups. Following the usual convention, the P-value classification and statistical significance levels chosen are shown in Table 2 alongside their corresponding classification scores.

Assay [2] has as its system murine STAM™ model of NASH-HCC. Put plainly: Murine STAM model of NASH-HCC, second study (Example 2): H&E NAFLD activity scoring and Sirius red fibrosis area. The assay is classed as in vivo, C57BL/6 mice. The following applies: for NAFLD Activity Scores, hepatic steatosis, lobular inflammation and hepatocellular ballooning (conclusion): Bromantane at 40 mg/kg, Cenicriviroc at 30 mg/kg. As for the experimental part: As before, male newborn C57BL/6 mice were used. All mice were born from pathogen-free 14 day-pregnant mice obtained from Japan SLC, Inc. (Hamamatsu, Japan) prior to the start of the study.
as §1
Following induction of NASH, the mice were randomized into 7 individual study groups of 8 mice each at 6 weeks of age (day 42±2) based on their body weight, the day before the start of treatment.
One day following randomization, the mice were administered a once-daily oral treatment from 6 weeks of age plus one day (day 43±2, treatment Day 1) to 9 weeks of age. The mice in 6 of the 7 study groups were treated individually with a therapeutic amount of a pharmacologic compound formulated with a pharmaceutically acceptable vehicle. […] The pharmaceutically acceptable vehicle in all groups was 0.5% CMC. […] Individual body weight was measured daily during the treatment period. Survival, clinical signs and behavior of mice were also monitored daily.
In each case, a volume of 10 mL/kg of 0.5% CMC was administered orally with (or without) the active ingredient as noted in Table 3 from 6 to 9 weeks of age. All mice were then sacrificed at 9 weeks of age. Blood samples were collected from all mice and the liver from each mouse was removed for analysis.
as §2
The liver cross-sections of the treated groups were also subjected to Sirius-red staining using standard techniques for histological estimation of the percentage of fibrosis area. For quantitative analysis of fibrosis area, bright field images of Sirius red-stained sections were captured around the central vein using a digital camera (DFC295; Leica, Germany) at 200-fold magnification, and the positive areas in 5 fields/section were measured using ImageJ software (National Institute of Health, USA).
as §3, with “7,” for “12,”, “2 (above)” for “2”

[3] abbreviates: once daily oral, 6 to 9 weeks of age, Bromantane high 40 mg/kg, Bemithyl 200 mg/kg, Cenicriviroc 30 mg/kg, Telmisartan 10 mg/kg.
Setting [4] is: once daily oral, 6 to 9 weeks of age, Bromantane high 40 mg/kg, Cenicriviroc 30 mg/kg, Bemithyl 200 mg/kg, Telmisartan 10 mg/kg.

Each structure is given as a SMILES string.

The source of these data is patent publication US11744808B2, “Compositions and methods for treating non-alcoholic steatohepatitis” (ALGERNON PHARMACEUTICALS INC., priority 2018, dated 2023).

For `Nc1nc(N)nc(-c2cc(Cl)ccc2Cl)n1` [Irsogladine, 6-(2,5-Dichlorophenyl)-1,3,5-triazine-2,4-diamine], the “hepatocellular ballooning score relative to Vehicle control” value in assay [1] was “Statistically significant reductions”.
With `CCCCOCCOc1ccc(-c2ccc3c(c2)/C=C(/C(=O)Nc2ccc([S@@+]([O-])Cc4cncn4CCC)cc2)CCCN3CC(C)C)cc1` [Cenicriviroc], the “NAFLD Activity Scores, hepatic steatosis, lobular inflammation and hepatocellular ballooning (conclusion)” value (“NAFLD Activity Scores, hepatic steatosis” for short) in assay [2] is recorded as “showed improvement”. Further, in assay [2] (setting [3]), the “fibrosis area (Sirius red-positive area) compared with the Vehicle group” value (shortened to “fibrosis area … compared with the Vehicle group”) was “statistically significant decreases”. In addition, in assay [2] (setting [4]), the “NAFLD activity score relative to Vehicle control” value is “Statistically significant reductions”.
Take `CCn1c(=O)c2c(nc(/C=C/c3ccc(OC)c(OC)c3)n2C)n(CC)c1=O` [Istradefylline, 8-[(E)-2-(3,4-dimethoxyphenyl)vinyl]-1,3-diethyl-7-methyl-3,7-dihydro-1H-purine-2,6-dione]: in assay [1] (Istradefylline at 18 mg/kg, Telmisartan at 10 mg/kg oral, compared to the Vehicle group), the “NAFLD Activity Scores, hepatic steatosis” value is given as “showed improvement”. Besides, in assay [1], the “hepatocellular ballooning score relative to Vehicle control” value is listed as “Statistically significant reductions”, the “NAFLD activity score relative to Vehicle control” value was “Statistically significant reductions” and the “fibrosis area … compared with the Vehicle group” value was “significant decreases”.
Regarding `Brc1ccc(NC2C3CC4CC(C3)CC2C4)cc1` (stereo not drawn) [Bromantane, N-(4-Bromophenyl)adamantan-2-amine], the “hepatocellular ballooning score relative to Vehicle control” value in assay [1] is “Statistically significant reductions”. Further, the “NAFLD activity score relative to Vehicle control” value in assay [1] and in assay [2] (setting [4]) was “Statistically significant reductions” each time. The “fibrosis area … compared with the Vehicle group” value in assay [1] is “significant decreases”; in assay [2] (setting [3]), “statistically significant decreases”; in assay [2] (once daily oral, 6 to 9 weeks of age, Bromantane low 20 mg/kg), “statistically significant decreases”. Besides, the “NAFLD Activity Scores, hepatic steatosis” value in assay [2] was “showed improvement”. In addition, in assay [2] (once daily oral, 6 to 9 weeks of age, Bromantane high 40 mg/kg, Telmisartan 10 mg/kg), the “steatosis score relative to Vehicle control” value was “Statistically significant reductions”.
For the compound `CCSc1nc2ccccc2[nH]1` [Bemithyl, 2-Ethylsulfanyl-1H-benzoimidazole], the “fibrosis area … compared with the Vehicle group” value in assay [2] (setting [3]) is “particularly statistically significant decrease”. Besides, the “NAFLD activity score relative to Vehicle control” value in assay [2] (setting [4]) was “statistically significant and clinically relevant composite reduction”.
